Test results from US7423020B2, “Treatment of mood disorders by administration of SMR1” (Institut Pasteur, priority 2001, dated 2008).

Tests used:
male Wistar/AF EOPS rats [1] = assay: Behavioral despair test (forced swimming); type: in vivo, rat; conditions: first 5 minutes, n = 10
male Wistar/AF EOPS rats [2] = assay: Behavioral despair test (forced swimming); type: in vivo, rat
Protocol: Forty male Wistar/AF EOPS rats (Iffa-Credo Breeding Centre, 69-St-Germain sur l'Arbresle, France), weighing 300 to 320 g, were used. On arrival, the rats were labelled and distributed randomly in pairs into type F polycarbonate cages (48×27×20 cm, U.A.R., 91-Epinay-Sur-Orge, France). The animals were stabled in an air-conditioned animal house, at a temperature of 22-24° C. The rats were given food (M25 croquettes, Ets Pietrement, 77-Provins, France) and drink ad libitum and were subjected to a 12-hour light-darkness cycle.
After one week of familiarization with the laboratory conditions, the rats were weighed and distributed randomly into 3 treatment groups (n=12). The rats of the different groups will all be handled in the same way and under the same conditions.
The behavioral despair test takes place over two sessions: • a 15-minute test session; • a 5-minute retest session, performed 24 hours later.
During the test session, the rat was subjected to forced swimming in a Plexiglas cylinder (20 cm in diameter and 50 cm in height, containing 25 cm of water at 25° C.) and its behavior was recorded over 15 minutes. At the end of the test, the rat was removed from the water, dried gently, treated and then returned to its dwelling cage.
During the retest, 24 hours later, the rat was again placed in the water and its behavior was recorded over 5 minutes.
The recorded variables are the period of immobility during the first 5 minutes of both the test and the retest.
The peptide FG-005 (SMR1-QHNPR) (SEQ ID NO: 1) was suspended at a rate of 500 μg per 5 ml of 0.01N acetic acid, and then diluted with PBS to be administered at doses of 50 and 100 μg/kg via the i.v. route into the dorsal caudal vein of the rat, immediately after the test and 300 and 5 minutes before the retest the following day.
A bilateral probability paired t test was used to compare the two periods of immobility of the test with those of the retest in each of the groups. The results are expressed as an average ±standard error of mean (SEM)(FIG. 4). The statistical and graphical processing was performed using Statview5 and DeltaGraph® Pro 3.5 software.

NEP [3] = biological target: T1, NEP (Rattus norvegicus, UniProt P07861); assay: Met-enkephalin degradation by rat spinal cord slices, RIA assay; type: biochemical; conditions: 10 μM; fresh spinal cord slices; 20 min at 25° C.; 10 μM Met-enkephalin
T1 construct: incubations of membrane and fresh tissue slice preparations from nervous tissues; from tissue; host or cells: rat spinal cord (dorsal zone), fresh slices or 100 000 x g membrane fraction
T1 sequence (P07861 1-750): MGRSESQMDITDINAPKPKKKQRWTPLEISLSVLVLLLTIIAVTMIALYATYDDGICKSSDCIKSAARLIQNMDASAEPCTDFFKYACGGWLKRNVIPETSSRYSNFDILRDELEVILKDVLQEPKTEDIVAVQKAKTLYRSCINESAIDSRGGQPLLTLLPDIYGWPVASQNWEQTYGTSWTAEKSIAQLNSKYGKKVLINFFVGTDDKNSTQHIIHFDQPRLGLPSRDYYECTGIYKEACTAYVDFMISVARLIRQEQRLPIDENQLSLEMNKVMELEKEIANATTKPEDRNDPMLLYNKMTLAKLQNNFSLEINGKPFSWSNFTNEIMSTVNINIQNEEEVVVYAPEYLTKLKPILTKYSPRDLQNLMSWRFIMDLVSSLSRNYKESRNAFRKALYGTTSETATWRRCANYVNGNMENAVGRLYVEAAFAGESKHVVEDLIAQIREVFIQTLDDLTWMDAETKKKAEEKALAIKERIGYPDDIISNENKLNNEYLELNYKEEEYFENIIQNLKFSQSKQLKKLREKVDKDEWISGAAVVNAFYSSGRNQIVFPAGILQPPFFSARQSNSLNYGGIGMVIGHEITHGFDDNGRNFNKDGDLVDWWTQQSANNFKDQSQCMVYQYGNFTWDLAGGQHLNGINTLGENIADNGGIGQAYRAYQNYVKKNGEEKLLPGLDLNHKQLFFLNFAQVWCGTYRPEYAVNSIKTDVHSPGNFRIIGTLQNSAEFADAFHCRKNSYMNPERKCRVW
Protocol: (§1) For the experiments of analysis of the NEP peptidase activity, an ex vivo model using incubations of membrane and fresh tissue slice preparations from nervous tissues that are known to be appropriate for exploring NEP peptidase activity: i.e. the dorsal zone of rat spinal cord, was first developed. […] (NEN, 12.5-25 nM) were used.
(§2) The objective was to measure the NEP-specific endoproteolysis of these substrates.

NEP [4] = biological target: T1, NEP; assay: Met-enkephalin hydrolysis by rat spinal cord slices and membrane preparations, RP-HPLC analysis; type: biochemical; conditions: for inhibition of enkephalinase activity over the time of incubation: 37° C., from 10 to 30 min, 10 μM Phosphoramidon, 1 μM Thiorphan
Protocol: The organs are rapidly removed, dissected on ice, freed of nerve fibers and of adipose tissues and then washed in cold oxygenated glucose-and bicarbonate-containing Krebs Ringer (KRBG) solution, whose composition is the following: 120 mM NaCl-5 mM KCl-1.2 mM KH2PO4-27.5 mM NaHCO3-2.6 mM CaCl2-0.67 mM MgSO4-5.9 mM glucose. The slices of tissues are prepared either manually with the aid of a scalpel (1-2 mm thick), or mechanically with the aid of a “Tissue Chopper” (1 mm thick). Slices are then dispersed into reaction tubes where they are subjected to three successive washes in ice-cold oxygenated KRBG. […] The organs dissected out and washed in ice-cold KRBG are homogenized at 4° C. in 10 volumes (vol./wt.) of 50 mM Tris/HCl buffered at pH 7.2, using a Teflon-glass homogenizer (3×5 sec.). A first centrifugation of 5 min. at 1000×g and 4° C. makes it possible to remove the tissular debris and the nuclei in the pellet. A second centrifugation of the supernatant at 100 000×g and 5° C. concentrates the membrane fraction into the pellet, which will be superficially washed three times with cold Tris/HCl buffer and resuspended in fresh buffer using a Kontes homogenizer, aliquoted and stored at -80° C. while waiting to be used as enzyme source, at least until three months. For the experiments of analysis of the NEP peptidase activity, an ex vivo model using incubations of membrane and fresh tissue slice preparations from nervous tissues that are known to be appropriate for exploring NEP peptidase activity: i.e. the dorsal zone of rat spinal cord, was first developed. The metabolism rate of the NEP-sensitive peptides was measured using the both NEP substrates involved in the signaling of the nociceptive response: the neuropeptides Met-enkephalin and Substance P. […] (NEN, 12.5-25 nM) were used. The objective was to measure the NEP-specific endoproteolysis of these substrates. […] Furthermore, for studying the functional role of […] NO: 1), the reaction was carried out in the presence of the SMR1-peptide alone or combined with specific inhibitors of membrane peptidases which could inactivate the […] NO: 1) peptide by cleaving its C-terminal end: an inhibitor of carboxypeptidase […], 10 μM, Sigma) and an inhibitor of dipeptidylpeptidase IV (DPPIV inhibitor, 10 μM, Roche). […] Samples are kept at -30° C. until the measurement of their intact substrate and its metabolites content. The membrane preparations are preincubated in 50 mM Tris/HCl buffered at pH 7.2 and containing 10 μM Bestatin, at 25, 30 or 37° C. in constantly shaken water, in the presence or in the absence of NEP inhibitor. […] Samples are kept at -30° C. until the measurement of their intact substrate and its metabolites content. HPLC is a highly resolutive procedure that allows one to isolate, and detect by coupled spectrophotometer analysis, the non-radioactive peptides whose concentration is at least 1 to 10 μM. The C-18 RP-HPLC is based on the same principle as the C-18 Sep-Pak cartridge. The chromatographic analyses were used to study the hydrolysis of Met-Enkephalin, that were done on a C-18 LUNA analytical column (150×4.6 mm inner diameter, AIT) packed with 5 μm-diameter beads. […] Their identification and relative quantification (peak height) are checked by continuously monitoring the UV absorbance at 254 nm of column outflow. In first series of experiment, the slices and the membrane preparations of spinal cord tissues were incubated at 30° C. in a 1 ml final volume of KRBG, and at 37° C. in a 0.25 ml final volume of Tris/HCl 50 mM, pH 7.2, respectively.

NEP [5] = biological target: T1, NEP; assay: 3H-Substance P hydrolysis by rat spinal cord slices; type: biochemical; conditions: 25° C., over 30 min incubation, read-out: inhibition of Substance P degradation
Protocol: as §1, §2
The C-18 Sep-Pak cartridges (Waters) were used to analyze the hydrolysis of the radiolabeled peptides: they separate compounds according to their differences in polarity. This solid-phase extraction procedure allows isolating the substrate from its metabolites, since the hydrophobic character of the peptide metabolites is reduced or even lost compared to the intact peptide substrate.
The radioactivity of eluted and isolated compounds is determined by liquid scintillation spectrometry.

| Structure (SMILES) | Immobility period, Retest (male Wistar/AF EOPS rats [1]; 0.5 mg/kg i.p., 1440, 300, 30 min before the retest) | Immobility period, Test (male Wistar/AF EOPS rats [1]; 8-OH-DPAT group, 0.5 mg/kg i.p., test session before any treatment) | change of period of immobility, retest compared with test (male Wistar/AF EOPS rats [2]; 8-OH-DPAT treated rats) | overall effect in the behavioral despair test (male Wistar/AF EOPS rats [2]; FG-005 50 and 100 μg/kg i.v., 8-OH-DPAT as reference substance) | protection of Met-enkephalin from degradation (RIA) (NEP [3]) [%] | inhibition at 10 µM (NEP [4]; 10 μM, membrane preparations and fresh tissue slices, 10 min incubation at 37° C., read-out: inhibition of Met-enkephalin hydrolysis (enkephalinase activity)) [%] | inhibition of Met-enkephalin degradation (RP-HPLC) (NEP [4]; 10 μM, spinal cord slices, 20 min at 25° C., Met-enkephalin 10 μM) | inhibition of enkephalinase activity over the time of incubation (NEP [4]) | inhibition at 10 µM (NEP [5]) [%] | inhibition at 1 µM (NEP [4]; 1 μM, membrane preparations and fresh tissue slices, 10 min incubation at 37° C., read-out: inhibition of Met-enkephalin hydrolysis (enkephalinase activity)) [%] | inhibition at 10 µM (NEP [4]; 10 μM, spinal cord slices, 20 min at 25° C., Met-enkephalin 10 μM, read-out: inhibition of Met-enkephalin degradation (RP-HPLC)) [%] |
| --- | --- | --- | --- | --- | --- | --- | --- | --- | --- | --- | --- |
| CCCN(CCC)C1CCc2cccc(O)c2C1 (centres unmarked) [8-OH-DPAT, reference compound] | 31.60 ± 11.51 | 109.20 ± 11.43 | significantly reduce their period of immobility | significant anti-resignation effect |  |  |  |  |  |  |  |
| CC(C)C[C@H](NP(=O)(O)O[C@@H]1O[C@@H](C)[C@H](O)[C@@H](O)[C@H]1O)C(=O)N[C@@H](Cc1c[nH]c2ccccc12)C(=O)O [Phosphoramidon] |  |  |  |  | 96 | 80 to 90 | complete inhibition | almost complete inhibition | 60 to 65 |  |  |
| O=C(O)CNC(=O)C(CS)Cc1ccccc1 (centres unmarked) [Thiorphan] |  |  |  |  | 100 |  |  | almost complete inhibition | 60 to 65 | 80 to 90 | 80 |
